Data set [1] deals with MCF7 cells. Nature of the data set: APO BrdU TUNEL assay. The data set is classed as cell-based, human. To be noted: 40 μM. The procedure:
ON-TARGETplus SMARTpool FOXO1 siRNA and ONTARGETplus GAPD Control Pool were purchased from Dharmacon (Thermo Scientific) and were used at a final concentration of 100 nM. MCF7 cells were reverse transfected in a 6-well plate using Lipofectamine RNAiMAX reagent (Invitrogen) per the manufacturer's protocol.
MCF7 cells were grown in 6-well plates to 70-80% confluency. For experiments in which RNAi was used to knock down FOXO1 or GAPDH expression, the cells were first transfected as described above. Cells were treated with small molecules for 20 h followed by completion of an APO BrdU TUNEL assay (Molecular Probes) per the manufacturer's protocol. Flow cytometry was performed using a BD LSRII instrument (BD Biosciences). At least 10,000 events were used for analysis.

The subject of data set [2] is 5′UUU/3′AUA RNA (loop near the processing site of miRNA-96 precursor). Nature of the data set: in solution, fluorescence-based binding affinity assay. More on the design: species or system human. The procedure:
(§1) Dissociation constants were determined using an in solution, fluorescence-based assay (Disney et al., J. Am. Chem. Soc. 130, 11185-11194 (2008)). The RNA of interest was folded in 1× Assay Buffer (8 mM Na2HPO4, pH 7.0, 190 mM NaCl, 1 mM EDTA and 40 μg/mL BSA) by heating at 60° C. for 5 min and slowly cooling to room temperature. A selected fluorescently labeled compound was added to a final concentration of 50 nM for compounds 1-Fl, 4-Fl, and 5-Fl or 500 nM for compound 2. Serial dilutions (1:2) were then completed in 1× Assay Buffer supplemented with 50 nM of compounds 1-Fl, 4-Fl, or 5-Fl or 500 nM of 2. The solutions were incubated for 30 min at room temperature and then transferred to a 96-well plate and fluorescence intensity measured. The change in fluorescence intensity as a function of RNA concentration was fit to the following equation (Wang & Rando, Chem. Biol. 2, 281-290. (1995)): I=I0+0.5Δε(([FL]0+[RNA]0+Kt)−(([FL]0+[RNA]0+Kt)^2−4[FL]0[RNA]0)^0.5) where I and I0 are the observed fluorescence intensity in the presence and absence of RNA respectively, Δε is the difference between the fluorescence intensity in the absence of RNA and in the presence of infinite RNA concentration, [FL]0 and [RNA]0 are the concentrations of small molecule and RNA, respectively, and Kt is the dissociation constant.
(§2) The targetable loops (motifs) were embedded into C1 (FIG. 1) so that affinity measurements could be completed. The secondary structures of the RNAs as predicted by RNAstructure (Mathews et al., Proc. Natl. Acad. Sci. U.S.A. 101, 7287-7292 (2004).) and representative binding curves are shown in (FIG. 4D-4I).

Data set [3] has as its system miR-96-FOXO1 luciferase model system. The data set is described as follows: Dual luciferase assay, miR-96 3′ UTR target. The data set is classed as cell-based, human. To be noted: 40 μM, MCF7 cells. The procedure: MCF7 cells were grown in 96-well plates to ˜80% confluency in complete growth medium. The cells were transiently transfected with 100 ng of plasmid encoding either the miR-96 3′ UTR target or a mutated 3′ UTR target using Lipofectamine 2000 per the manufacturer's protocol. Approximately 5 h post transfection, the small molecule of interest was added in complete growth medium, and the cells were incubated for another 20 h. Luciferase activity was then measured using a Dual Glo Luciferase Assay System (Promega) per the manufacturer's protocol. The values reported are the average of at least three measurements, and errors are the corresponding standard deviations.

The subject of data set [4] is miR-96. The data set is described as follows: qRT-PCR of mature miRNA in MCF7 cells. In kind it is cell-based, human. Here is the method: (§3) MCF7 cells were cultured in either 6-well or 12-well plates, and total RNA was extracted using TRIzol LS reagent (Ambion) per the manufacturer's protocol. Approximately 200 ng of total RNA was used in reverse transcription (RT) reactions, which were completed using a Taqman MicroRNA RT Kit (Applied Biosystems) or a miScript II RT kit (Qiagen) per the manufacturer's protocol. qRT-PCR was performed on a 7900HT Fast Real Time PCR System (Applied Biosystem) using Taqman Universal PCR Master Mix or power SYBR green master mix (Applied Biosystems). All primer sets for mature miRNAs were purchased from Applied Biosystems. The expression level of mature miRNAs was normalized to U6 small nuclear RNA.
(§4) Pri-, pre-, and mature miR-96 RT-PCR products were analyzed on a denaturing 10% polyacrylamide gel stained with ethidium bromide. Expression levels were normalized to GAPDH.
(In general: Quantitative PCR measures a nucleic acid by following its amplification.)

The subject of data set [5] is miR-182. The data set is described as follows: qRT-PCR of mature miRNA in MCF7 cells. In kind it is cell-based, human. To be noted: 40 μM, 20 h. Here is the method:
as §3

Data set [6] relates to miR-183. The data set is described as follows: qRT-PCR of mature miRNA in MCF7 cells. To be noted: 40 μM, 20 h. The data set is classed as cell-based, human. Here is the method: as §3
Data set [7] has as its system miR-210. Nature of the data set: qRT-PCR of mature miRNA. The data set is classed as cell-based, human. To be noted: 500 nM, ACHN renal cancer cell line. Here is the method:
as §3

The target of data set [8] is C1 (cassette RNA). Nature of the data set: in solution, fluorescence-based binding affinity assay. To be noted: read-out: Dissociation constants, C1. Here is the method:
as §1, with “constant. […]” for “constant.”

In data set [9] the target is H Hairpin (DNA hairpin). The data set is described as above. To be noted: read-out: Dissociation constants, H Hairpin. The procedure:
as §1, with “constant. […]” for “constant.”

Data set [10] relates to pre-miR-96. Nature of the data set: qRT-PCR of pre-miR-96 in MCF7 cells. The data set is classed as cell-based, human. To be noted: 50 nM. Here is the method: as §4
Data set [11] concerns the target 5′CGAUU/3′GGUAUA RNA. The data set is described as follows: in solution, fluorescence-based binding affinity assay. On the set-up: species or system human. To be noted: read-out: Dissociation constants, 5′CGAUU/3′GGUAUA. Here is the method:
as §1, §2

In data set [12] the target is 5′CGA/3′GGU RNA. The description is as above. To be noted: read-out: Dissociation constants, 5′CGA/3′GGU. More on the design: species or system human. Here is the method:
as §1, §2

Data set [13] has as its system FOXO1 protein. The data set is described as follows: Western blotting. The data set is classed as cell-based, human. To be noted: 50 nM, MCF7 cells. The procedure: MCF7 cells were grown in 6-well plates to ˜80% confluency in complete growth medium. […] Total protein was extracted using M-PER Mammalian Protein Extraction Reagent (Pierce Biotechnology) using the manufacturer's protocol. Extracted total protein was quantified using a Micro BCA Protein Assay Kit (Pierce Biotechnology). Approximately 40 μg of total protein was resolved on an 8% SDS-polyacrylamide gel, and then transferred to a PVDF membrane. The membrane was briefly washed with 1× Tris-buffered saline (TBS), and then blocked in 5% milk in 1×TBST (1×TBS containing 0.1% Tween-20) for 1 h at room temperature. The membrane was then incubated in 1:1000 FOXO1 primary antibodies (Cell Signaling Technology) in 1×TBST containing 3% BSA overnight at 4° C. The membrane was washed with 1×TBST and incubated with 1:2000 anti-rabbit IgG horseradish-peroxidase secondary antibody conjugate (Cell Signaling Technology) in 1×TBS for 1 h at room temperature. After washing with 1×TBST, protein expression was quantified using SuperSignal West Pico Chemiluminescent Substrate (Pierce Biotechnology) per the manufacturer's protocol. The membrane was then stripped using 1× Stripping Buffer (200 mM glycine, pH 2.2 and 0.1% SDS) followed by washing in 1×TBS. […] Image J software from the National Institutes of Health was used to quantify band intensities.
A general note: Immunoblotting shows a protein as a band on a membrane.

The subject of data set [14] is MCF10A (healthy breast cells). Nature of the data set: Annexin V/PI assay. To be noted: 50 nM, 72 hours. The data set is classed as cell-based, human. Here is the method:
Annexin V/PI Assays: MDA MB 231 or MCF-10A cells were grown in 6-well plates to 40-50% confluency. The cells were incubated with 50 nM of small molecule for 72 h and then detached from the surface using accutase. They were washed twice each with ice cold 1×DPBS and 1× Annexin Binding Buffer (50 mM Hepes (pH 7.4), 700 mM NaCl and 12.5 mM CaCl2). The cells were resuspended in 100 μL 1× Annexin Binding Buffer, and then 5 μL Annexin V-APC (eBioscience) were added. The solution was incubated for 10 min at room temperature followed by washing with 1× Annexin Binding Buffer. The cells were then stained with 1 μg/mL propidium iodide in 300 μL of 1× Annexin Binding Buffer for 15 min at room temperature. Flow cytometry was performed using a BD LSRII instrument (BD Biosciences). At least 10,000 events were used for analysis.

Data set [15] has as its system pri-miR-96. Nature of the data set: qRT-PCR of pri-miR-96 in MCF7 cells. The data set is classed as cell-based, human. The procedure: as §4

As to `CN1CCN(c2ccc3nc(-c4ccc(OCCCC(=O)NCCCN=[N+]=[N-])cc4)[nH]c3c2)CC1` [Compound 5], in data set [1], the induction of apoptosis entry is given as “do not induce apoptosis”. For the same molecule, the “binding affinity for the miR-96 precursor” value in data set [2] is reported as “lack of binding affinity”. Also, the “effect on luciferase expression” value in data set [3] was “no effect”. In addition, in data set [4] (40 μM, 20 h), the “effect on miR-96 expression” value was “do not affect”. Besides, the “effect on miR-182 expression” value in [5] is “do not affect”. For the same molecule, in data set [6], the “effect on miR-183 expression” value is “do not affect”.
In the case of `CN1CCN(c2ccc3nc(-c4ccc5nc(-c6cccc(OCCCC(=O)NCCCN=[N+]=[N-])c6)[nH]c5c4)[nH]c3c2)CC1` [Compound 2], the induction of apoptosis entry in data set [1] is listed as “do not induce apoptosis”. For the same molecule, in [2], the “binding affinity for the miR-96 precursor” value is given as “lack of binding affinity”. Besides, the “reduction of formation of miR-210” value in [7] amounted to 60%. In addition, in data set [3], the “effect on luciferase expression” value is “no effect”. For the same molecule, the “effect on miR-96 expression” value in [4] (40 μM, 20 h) is reported as “do not affect”. Also, the “effect on miR-182 expression” value in data set [5] is reported as “do not affect”. The “effect on miR-183 expression” value in [6] is “do not affect”.
In the case of `C#CCCCC(=O)NCC1O[C@H](O[C@@H]2C(N)C[C@@H](N)C(O[C@@H]3OC(CO)[C@H](O)C(N)C3O)[C@H]2O)C(O)[C@@H](O)[C@@H]1O` (some centres unmarked) [Compound 3], in data set [4] (200 μM), the “effect on miR-96 expression” value is on record as “a less, but significant, effect”.
For `CCCN(CC(=O)N(CCC)CC(=O)N(CC(N)=O)Cc1cn(CCCNC(=O)CCCOc2c(C(C)(C)C)cc(-c3nc4cc(N5CCN(C)CC5)ccc4[nH]3)cc2C(C)(C)C)nn1)C(=O)CCCOc1cccc(-c2nc3ccc(-c4nc5ccc(N6CCN(C)CC6)cc5[nH]4)cc3[nH]2)c1` [BSH-2-H], the Kd in [8] is greater than 4000 nM; in data set [9] it was greater than 50000 nM; in data set [2] (read-out: Dissociation constants, 5′UUU/3′AUA) it was 1170 ± 279 nM; in data set [11], 85 ± 11 nM; in data set [12], 900 ± 200 nM. Further, the “production of pre-microRNA-96” value in [10] was “inhibiting production of the pre-microRNA-96”. Also, in data set [13], the “increase in FOXO1 protein expressed” value is 2.5 fold. The “effect on apoptosis in healthy breast cells” value in data set [14] was “no effect on apoptosis”. In data set [15] (50 nM), the “production of pri-microRNA-96” value is listed as “boosting production of the pri-microRNA-96”. For the same molecule, the “increase of pri-miRNA 96” value in data set [15] (24 hours) was “about 2.3 fold”. The “production of mature microRNA-96” value in data set [4] (50 nM) is “significantly inhibited production of the mature microRNA-96”. Moreover, the “effect on mature miRNA-96 levels” value in data set [4] (1 μM, 0.5 μM and 0.05 μM, 24 hours) is “reduced mature miRNA-96 levels in a dose-dependent fashion”.

The values above are taken from US10157261B2, “Transcriptome-wide design of selective, bioactive small molecules targeting RNA” (The Scripps Research Institute, priority 2013, dated 2018).
